We go through 100 molecules from ChEMBL document CHEMBL3507680, “University of Dundee, Gates Library screen for HepG2 cell viability”.

The structures appear in SMILES notation.

This data set can be described thus: Human HepG2 cell viability assay in 384 well format. Format: toxicity, cell-based. Also on record: dose 125 nL, time 70.5 hour; concentration not given beside the values. The conditions noted are these: HepG2 cells, read-out: Inhibition.
As to `CCOc1ccc(C(=O)NCc2ccnc(N3CCCC3)c2)cn1`, the cytotoxicity at 70.5 h was -6.13%.
Consider `CC(C)n1ncc2c1NC(=O)CC21C(=O)Nc2c(Br)cc(Cl)cc21` (stereo not given), for which the cytotoxicity at 70.5 h was -14.8%.
Regarding `CN1CCN(S(=O)(=O)c2ccc3c(c2)CN(C(=O)C(C)(C)C)CC3)CC1`, the cytotoxicity at 70.5 h is -2.56%.
Regarding `CC(C)c1ncc2c(n1)CN(Cc1noc(-c3ccccc3)n1)CC2`, the cytotoxicity at 70.5 h came to 0.861%.
For the molecule `Cc1nc(CN2CCCC(CCc3ccccc3C)C2)c[nH]1` (stereo not given), the cytotoxicity at 70.5 h amounted to 19%.
For `Cn1cc(NC(=O)Cn2cc(-c3ccccc3)ncc2=O)cn1`, the cytotoxicity at 70.5 h is 19.6%.
As for `O=C(NCc1cn2c(n1)CN(Cc1ccccn1)CC2)C1CCC1`, the cytotoxicity at 70.5 h was -10%.
Turning to `Cc1ccc(-c2nnc(CN3CCCC(Cn4cncn4)C3)o2)cc1` (stereo not given), the cytotoxicity at 70.5 h was -1.97%.
Under `COCCN(Cc1ccc(F)cc1Cl)C(=O)c1ccncc1` stands -6.63%; under `CNC(=O)C1CCN(c2nc3nc[nH]c(=O)c3s2)CC1`, -16.7%; under `Cc1c(C)n(CC(O)CN2CCC(O)CC2)c2c(Cl)cccc12` (stereo not given), 16.5%.
Under `N#Cc1ccc(SCCOCCO)c(Cl)c1` stands -5.04%; under `CN(C)C(=O)N1CCCC2(CCN(c3ccsc3)C2=O)C1` (stereo not given), -6.16%; under `O=C1CCCN1CCc1noc(-c2ccc3[nH]cnc3c2)n1`, -8.29%.
With `CC1CCCN1Cc1cccc(C(=O)Nc2ccc3c(c2)CCC3=O)c1` (stereo not given), the cytotoxicity at 70.5 h worked out at 5.96%.
Under `O=C(NS(=O)(=O)Cc1cc(-c2ccccc2)no1)C1CCOCC1` stands -1.22%.
Regarding `COc1ccc(CN(C)[C@@H]2CN(C(=O)c3ccnn3C)C[C@H]2O)cc1`, the cytotoxicity at 70.5 h was -3.38%.
With `CCn1cc(NC(=O)NCC(c2cccc(F)c2)N(C)C)cn1` (stereo not given), the cytotoxicity at 70.5 h is -4.54%.
Consider `CCN(C(C)=O)c1nc(CN2CCN(c3nccs3)CC2)cs1`, for which the cytotoxicity at 70.5 h turned out to be 23.5%.
Turning to `Cc1nc(CCNC(=O)NC2CCN(c3ncccn3)CC2)cs1`, the cytotoxicity at 70.5 h is -8.38%.
In the case of `COCCOc1cccc(CNCC2CN(C)CCO2)c1` (stereo not given), the cytotoxicity at 70.5 h is -0.0199%.
Turning to `O=C(c1c[nH]c(=O)c(Cl)c1)N1CCc2ccccc2C1`, the cytotoxicity at 70.5 h was determined as 1.04%.
In the case of `O=C(CCn1cncn1)NC1CCS(=O)(=O)C1` (stereo not given), the cytotoxicity at 70.5 h was -11%.
In the case of `COCCN(Cc1ccsc1)C(=O)c1c(C)cc(C)[nH]c1=O`, the cytotoxicity at 70.5 h is -1.09%.
`CC(=O)NC1CCN(c2nc(N(C)C)nc3c2CCCC3)CC1`: the cytotoxicity at 70.5 h was -1.98%.
As to `Cc1ccc(N2CCC(C3CCN(CC(C)C)CC3)C2)nn1` (stereo not given), the cytotoxicity at 70.5 h is -6.28%.
For the molecule `CN(C)C(=O)CN1C(=O)CCC12CCN(Cc1ccc(F)cc1)CC2`, the cytotoxicity at 70.5 h turned out to be 5.3%.
Next, `CC(C)Oc1ncccc1CNC(=O)N1CCSCC1`: -2.87%; `Cc1cc(C)c(C#N)c(N2CCC3(CCCN(CCO)C3=O)C2)n1` (stereo not given): 12.1%; `COCCCOC1CN(C(=O)c2[nH]nc3c2CCCC3)C1`: 4%.
With `CC(C)N1CC(C(=O)N2CCc3c(nc(CC4CC4)[nH]c3=O)C2)CC1=O` (stereo not given), the cytotoxicity at 70.5 h was -2.23%.
As to `COCCn1nc(C(=O)N2CCOCC2C)ccc1=O` (stereo not given), the cytotoxicity at 70.5 h is 16.9%.
Under `COCC(NC1CCN(CC(C)C)CC1)c1ccnn1C` (stereo not given) stands -6.73%.
For `Cn1nc(C2CCN(C(=O)Cc3cccc(F)c3)CC2)c2cccnc21`, the cytotoxicity at 70.5 h is -6.14%.
Under `O=C1NCc2ccccc2CC12CCCN(CCCc1ccccc1)C2` (stereo not given) stands -3.38%; under `N#Cc1cc2c(nc1SCc1cc(O)nc(O)n1)CCCCC2`, -1.03%; under `CC(=O)N1CCO[C@@H]2CN(C(=O)c3ccc4ccccc4c3)CC[C@@H]2C1`, -2.64%.
`Cc1c(C(C)NC2CCCC2)cnn1-c1ccc(F)cc1F` (stereo not given): the cytotoxicity at 70.5 h was 0.586%.
Next, `CC1(c2ccccc2)CCC(=O)N(CCN2CCCOC2=O)C1` (stereo not given): -6.79%; `CC[C@H](C)[C@@H](CO)NC(C)Cc1ccc(F)cc1` (stereo not given in full): -5.84%; `N#Cc1cccc(S(=O)(=O)N2CCCCC2CCN2CCCC2=O)c1` (stereo not given): -2.56%.
Turning to `O=C(NCC(O)(c1ccco1)C1CC1)c1ccccc1F` (stereo not given), the cytotoxicity at 70.5 h is -14.8%.
Under `CC(C)(C)C(=O)NS(=O)(=O)c1ccc(C#N)c(C(F)(F)F)c1` stands 7.04%.
For the molecule `CNC(=O)c1cnc(C)nc1CCNC(=O)CCc1ccccc1`, the cytotoxicity at 70.5 h came to 7.59%.
Regarding `O=C(Nc1cccc(CNCc2cccnc2)c1)C1CCCC1`, the cytotoxicity at 70.5 h was -4.79%.
Under `CN1C[C@@H](n2cnc(-c3ccccc3)c2-c2nccn2C)C[C@H]1C(=O)O` stands -11.9%; under `O=C1CCC(C(=O)Nc2cnn(-c3ccccc3Br)c2)N1` (stereo not given), -15.6%.
For `COc1ccc(F)c(-c2cc(C)nc(N)n2)c1`, the cytotoxicity at 70.5 h is -7.05%.
Take `CN(C)CCN1C(=O)CCC12CCCN(C(=O)c1ccncc1F)C2` (stereo not given): the cytotoxicity at 70.5 h was determined as 15.9%.
Under `CNC(=O)CN1C(=O)CCC12CCCN(Cc1ccccc1F)C2` (stereo not given) stands 6.16%.
Take `c1cc(CN2CCC(c3ccnc4nccn34)C2)ccn1` (stereo not given): the cytotoxicity at 70.5 h was -1.62%.
For `Cc1cc(CS(=O)(=O)NCC2CCCCC2)on1`, the cytotoxicity at 70.5 h is 0.508%.
Regarding `CCOc1ccc(S(=O)(=O)N(CCOC)Cc2ccoc2)cc1F`, the cytotoxicity at 70.5 h was -11.6%.
In the case of `Cc1cnn(CC2CCCN2c2ccc(C#N)cn2)c1` (stereo not given), the cytotoxicity at 70.5 h worked out at 6.54%.
Under `CC(C)N1CCC(NCc2cccnc2N(C)C)CC1` stands 2.11%; under `Nc1ccnc(N2CCC(Cc3ccccc3Cl)(C(=O)O)CC2)n1`, 1.15%.
Regarding `O=C(NCCCc1ccco1)c1ccc(N2CCOCC2)cc1`, the cytotoxicity at 70.5 h was determined as 4.57%.
As to `CC(C)c1cc(=O)[nH]c(-c2ccccc2CN2CCC(C)(C)C2)n1`, the cytotoxicity at 70.5 h was determined as 5.1%.
Turning to `COc1ccc(-c2nc3c([nH]2)CCNC3C(=O)O)c2ccccc12` (stereo not given), the cytotoxicity at 70.5 h is -7.46%.
For `CCCN1CCC(NCc2cccc(CN3CCOC(C)C3)c2)CC1` (stereo not given), the cytotoxicity at 70.5 h was found to be 27.7%.
In the case of `Cc1nocc1C(=O)N1CCOC2(COCCN(C(C)C)C2)C1` (stereo not given), the cytotoxicity at 70.5 h is -5.11%.
On to `CC(C)(C(=O)NCCCc1nc2ccccc2[nH]1)n1cc(Cl)cn1`, for which the cytotoxicity at 70.5 h is -5.61%.
Regarding `Cc1cc(C)n(C2CCCN(C(=O)Cn3ccc(=O)n(C)c3=O)C2)n1` (stereo not given), the cytotoxicity at 70.5 h was -7.57%.
As to `O=S(=O)(NCc1cc2n(n1)CCNC2)c1ccc(OC(F)(F)F)cc1`, the cytotoxicity at 70.5 h was -16.5%.
Consider `CN(CC(N)=O)CC(=O)N(C1=CCCCC1)C1CC1`, for which the cytotoxicity at 70.5 h is -10.7%.
Turning to `Cc1nc(CN2CCN(CCCc3ccccc3)CC2)no1`, the cytotoxicity at 70.5 h worked out at 1.83%.
Consider `CC(C)Nc1nc2c(c(NC3CC3)n1)CCN(C(=O)C1CCOC1)CC2` (stereo not given), for which the cytotoxicity at 70.5 h came out at 1.81%.
Under `O=C(Cc1cccc(F)c1F)NS(=O)(=O)c1ccc(Cl)cn1` stands -6.06%; under `O=C(Nc1cccnc1)[C@H]1CO[C@H]2CCN(c3ncc(F)cn3)C[C@H]2C1`, 4.85%.
Next, `Cc1nc(NC(=O)c2c(-n3cnnn3)sc3c2CCC3)sc1C`: -5.79%.
Under `CCN(CC)CCCNCc1cc2cccc(C)c2[nH]c1=O` stands -4.69%.
Turning to `CN(CC(=O)NC(Cc1ccsc1)c1cccnc1)Cc1cccnc1` (stereo not given), the cytotoxicity at 70.5 h turned out to be 19.4%.
Take `COCC(=O)N[C@H]1C[C@@H](Cc2cc(CN3CCCCC3)on2)C1(C)C`: the cytotoxicity at 70.5 h was 24.1%.
For `COc1ccccc1N1CCC(CNC(=O)N(C)Cc2ccco2)C1` (stereo not given), the cytotoxicity at 70.5 h is -3.56%.
As to `O=C(NC[C@H]1C[C@@H]2CCN1C[C@@H]2CN1CCOCC1)Nc1ccsc1`, the cytotoxicity at 70.5 h was -12.4%.
For `CC(CO)(NC(=O)Nc1nnc(C2CC2)s1)C1CCCCC1` (stereo not given), the cytotoxicity at 70.5 h was -11.1%.
Next, `COc1ccc(-c2nnc(C(C)N3CCOCC3)o2)cc1` (stereo not given): -2.92%.
Turning to `Fc1ccc(CN2CCC3(CC2)CC(c2cccnc2)CO3)cc1` (stereo not given), the cytotoxicity at 70.5 h is -0.689%.
Consider `COc1ccccc1-c1ncc(CN2CCC3(CCNCC3)CC2)cn1`, for which the cytotoxicity at 70.5 h was -7.68%.
In the case of `COc1ncccc1C(=O)N1CCC(CNC(C)=O)CC1`, the cytotoxicity at 70.5 h was -11.5%.
In the case of `CC(C)C(=O)N1CCOC2(COCCN(c3ncccn3)C2)C1` (stereo not given), the cytotoxicity at 70.5 h was -11.8%.
Turning to `COc1c(C2CCCN2CC(=O)Nc2cccnc2)c(C)nn1C` (stereo not given), the cytotoxicity at 70.5 h was -6.38%.
Regarding `Cc1ccc(S(=O)(=O)N[C@H](CO)C(C)C)cc1N(C)C`, the cytotoxicity at 70.5 h was -4.66%.
In the case of `COCCC(=O)N1CCC(c2cc(O)n(C)n2)C1` (stereo not given), the cytotoxicity at 70.5 h came out at 1.63%.
Consider `O=C(NC1CCCCC1)c1ccc(Oc2ccc3nncn3n2)cc1`, for which the cytotoxicity at 70.5 h is -7.56%.
Next, `COc1c(CNCCNC(=O)c2ccc(C)cc2)c(C(C)C)nn1C`: -8.14%; `CCOC(=O)c1ccc(N2CCN(Cc3c(C)nn(C)c3Cl)CC2)nc1`: 12.7%.
In the case of `Cc1nc(-c2ccnn2C)cc(C2CCCN(S(C)(=O)=O)C2)n1` (stereo not given), the cytotoxicity at 70.5 h was -6.24%.
Consider `c1cc2cc[nH]c2c(CC2CN(Cc3cscn3)C2)n1`, for which the cytotoxicity at 70.5 h was -3.59%.
In the case of `Fc1cccc(C(NCc2ncc[nH]2)c2ccccn2)c1` (stereo not given), the cytotoxicity at 70.5 h is -6.19%.
On to `COc1cc2c(cc1OC)C(=O)C(Sc1nnnn1C)C2` (stereo not given), for which the cytotoxicity at 70.5 h is -18.6%.
Regarding `Cc1nc(=O)c2ccccc2n1C1=CCN(CC(=O)N2CCCC2)CC1`, the cytotoxicity at 70.5 h was -1.43%.
Under `c1coc(-c2noc(CN3CCc4c(ncn4C4CC4)C3)n2)c1` stands 1.12%; under `COc1ccc(-c2noc(CN3CCCC3Cn3cccn3)n2)cc1` (stereo not given), -1.01%.
In the case of `CCOc1ccc(-c2ccnc(C)n2)cc1C(=O)O`, the cytotoxicity at 70.5 h was -4.51%.
`O=C(NCC1(O)CCOCC1)c1ccc(F)cc1`: the cytotoxicity at 70.5 h is -4.94%.
Turning to `CSCC(=O)Nc1nccn1Cc1ccc(Br)cc1`, the cytotoxicity at 70.5 h is -3.91%.
Consider `CCN(CC)C(=O)CCCNC(=O)Cc1nc(-c2ccco2)oc1C`, for which the cytotoxicity at 70.5 h is -12.3%.
Next, `Oc1cc(-c2ccccn2)nc(C2CCN(Cc3ccncc3)CC2)n1`: 16.5%; `CC(=O)c1cccc(OC(C)C(=O)Nc2cnn(CCN(C)C)c2)c1` (stereo not given): -12.3%.
